IC50 data for 55 compounds are collected here from patent publication US8895559B2, “Quinoxalines derivatives and pharmaceutical compositions and kits” (Merck Patent GmbH, priority 2010, dated 2014).

The test system of the first assay is PI3K. Description: Cellular testing of PI3K inhibitors: P-S473-PKB Luminex assay in PC3 cells. It counts as cell-based. The settings on record: PI3K-dependent phosphorylation of PKB at Serin 473 in PC3 cells. Here is the method:
Description of the Method for the Cellular Testing of PI3K Inhibitors
The cellular assay for determination of the P-S473-PKB level is carried out as a Luminex assay in 96-well format in PC3 cells.
PC3 cells are sown out with 20,000 cells per well in 100 μl medium (45% RPMI1460/45% Ham's F12/10% FCS) and incubated on the following day for 30 min with a serial dilution of the test substance (7 concentrations) under serum-free conditions. […] The lysates are incubated overnight at 4° C. with shaking with Luminex beads to which an anti-total PKB antibody is coupled. The detection is carried out on the following day by addition of a P-S473-PKB antibody and a species-specific PE-labelled secondary antibody. The detection of P-S473-PKB is carried out by measurement in a Luminex 100 instrument by determination of 100 events per cavity in a measurement time of 60 sec. […] The values of the preparations treated with test substance are calculated from this as percent of control, and IC50 values are determined by means of RS1.
A word on the IC50: it is the concentration that inhibits the measured activity by half. With `COc1ccc(CCO)c(Nc2nc3ccccc3nc2NS(C)(=O)=O)c1` [reference compound], the IC50 was 4.9 µM. That is a single-digit micromolar value. On the same count and under the same terms, the figure for `COc1ccc(CCCS(C)(=O)=O)c(Nc2nc3ccccc3nc2NS(=O)(=O)c2cn(C)cn2)c1` [reference compound] is 2.6 µM; for `COc1cc(Nc2nc3ccccc3nc2NS(=O)(=O)c2ccc(F)cc2)c(OCCOCCO)c(OC)c1` [drawing 159] it is 0.0014 µM; for `COc1ccc(CCO)c(Nc2nc3ccccc3nc2NS(=O)(=O)c2ccc(F)cc2)c1` [reference compound] it is 0.29 µM. With `COc1cc(Nc2nc3ccccc3nc2NS(=O)(=O)c2cn(C)cn2)c(OCCCO)c(OC)c1` [drawing 163], inhibition was half-maximal at 0.096 µM (IC50). This IC50 lies about 3-fold lower than the previous one.

The same assay, now with this note: PI3 kinase inhibition, cell.
In turn, `COc1cc(Nc2nc3ccccc3nc2NS(=O)(=O)c2cn(C)cn2)c(CCCCO)c(OC)c1` [Compound A7] returned an IC50 of 0.1 to 10 µM. Consider `COc1cc(Nc2nc3ccccc3nc2NS(=O)(=O)c2cn(C)cn2)c2c(c1)OCO2` [Compound A1], for which the IC50 lay within 0.1 to 10 µM.

Take `COc1cc(Nc2nc3ccccc3nc2NS(=O)(=O)c2ccc(C(=O)NCC(F)(F)F)cc2)c(OCCCO)c(OC)c1` [Compound A95]: the IC50 lay in the range of 0.1 to 10 µM. Compound `COc1cc(Nc2nc3ccccc3nc2NS(=O)(=O)c2cn(C)cn2)c2occc2c1` [Compound A16, 1-Methyl-1H-imidazole-4-sulfonic acid [3-(5-methoxybenzofuran-7-ylamino)quinoxalin-2-yl]amide] gave an IC50 greater than 10 µM.

For `COc1cc(Nc2nc3ccccc3nc2NS(=O)(=O)c2ccc(C(=O)NCC(F)F)cc2)c(OCCCO)c(OC)c1` [Compound A93], the IC50 lay within 0.1 to 10 µM. Compound `COc1cc(Nc2nc3ccccc3nc2NS(=O)(=O)N(C)C)c(OCCCO)c(OC)c1` [Compound A104] returned an IC50 of 0.001 to 0.1 µM.

`COc1cc(Nc2nc3ccccc3nc2NS(=O)(=O)c2cn(C)cn2)c(OCC[S+](C)[O-])c(OC)c1` (stereo not shown) [Compound A52] displayed an IC50 of 0.1 to 10 µM.

`COc1cc(Nc2nc3ccccc3nc2NS(=O)(=O)c2cn(C)cn2)c2c(c1)OC(CO)CO2` (stereo not shown) [Compound A124] showed an IC50 of 0.1 to 10 µM. Take `COc1cc(Nc2nc3ccccc3nc2NS(=O)(=O)c2ccc(C#N)cc2)c(OCCCO)c(OC)c1` [Compound A82]: the IC50 lay within 0.001 to 0.1 µM. The compound `COc1cc(Nc2nc3ccccc3nc2NS(=O)(=O)c2ccn(C(F)(F)C(=O)N(C)C)n2)c(OCCCO)c(OC)c1` [Compound A119] returned an IC50 of 0.1 to 10 µM. For the compound `COc1ccc(S(=O)(=O)Nc2nc3ccccc3nc2Nc2cc(OC)cc(OC)c2OCCOCCO)cc1` [Compound A61], the IC50 lay in the range of 0.1 to 10 µM. `COc1cc(Nc2nc3ccccc3nc2NS(=O)(=O)c2cccc(CN(C)C)c2)c(OCCCO)c(OC)c1` [Compound A109, 3-Dimethylaminomethyl-N-{3-[2-(3-hydroxy-propoxy)-3,5-dimethoxyphenylamino]quinoxalin-2-yl}benzenesulfonamide] returned an IC50 of 0.001 to 0.1 µM. With `CCCS(=O)(=O)Nc1nc2ccccc2nc1Nc1cc(OC)cc(OC)c1OCCOCCO` [Compound A56], the half-inhibitory concentration (IC50) was in the range of 0.1 to 10 µM. The same measure, in the same setting: the figure for `COc1cc(Nc2nc3ccccc3nc2NS(=O)(=O)c2cn(C)cn2)c(OCCOCCO)c(OC)c1` [Compound A81] is 0.1 to 10 µM; for `COc1cc(Nc2nc3ccccc3nc2NS(=O)(=O)c2cccc(C#N)c2)c(OCCOCCO)c(OC)c1` [Compound A63] it is 0.1 to 10 µM; for `COc1cc(Nc2nc3ccccc3nc2NS(=O)(=O)c2cn(C)cn2)c(OCC(C)CO)c(OC)c1` (stereo not shown) [Compound A32] it is 0.1 to 10 µM. Regarding `COc1cc(Nc2nc3ccccc3nc2NS(=O)(=O)c2ccc(C#N)cc2)c(CCCN2CCS(=O)(=O)CC2)c(OC)c1` [Compound A3], the IC50 was in the range of 0.001 to 0.1 µM. On the same count and under the same terms, under `COc1cc(Nc2nc3ccccc3nc2NS(=O)(=O)c2cccc(C(=O)NCC(F)(F)F)c2)c(OCCCO)c(OC)c1` [Compound A105] stands 0.1 to 10 µM. As for `COCCOCCOc1c(Nc2nc3ccccc3nc2NS(=O)(=O)c2ccc(C#N)cc2)cc(OC)cc1OC` [Compound A48], the half-maximal inhibitory concentration (IC50) fell in the range of 0.001 to 0.1 µM. As to `COc1cc(Nc2nc3ccccc3nc2NS(=O)(=O)c2cn(C)cn2)c(OCCN2CCOCC2)c(OC)c1` [Compound A54], the IC50 lay within 0.1 to 10 µM. In the case of `COc1cc(Nc2nc3ccccc3nc2NS(=O)(=O)c2cn(C)c(CN(C)C)n2)c(OC)c(OC)c1` [Compound A31], the IC50 was in the range of 0.1 to 10 µM. Same read-out and setting: under `COc1cc(Nc2nc3ccccc3nc2NS(=O)(=O)c2ccc(F)cc2)c(OCCOCCO)c(OC)c1` [Compound A53] stands 0.001 to 0.1 µM; under `COc1cc(Nc2nc3ccccc3nc2NS(=O)(=O)c2cnn(C)c2)c(OCCC(C)O)c(OC)c1` (stereo not shown) [Compound A43], 0.1 to 10 µM. Consider `COc1cc(Nc2nc3ccccc3nc2NS(=O)(=O)c2ccc(C(=O)N(C)C)cc2)c2occc2c1` [Compound A15], for which the IC50 was greater than 10 µM.

As to `COc1cc(Nc2nc3ccccc3nc2NS(=O)(=O)c2ccc(CN)cc2)c(OCCCO)c(OC)c1` [Compound A106, 4-aminomethyl-N-{3-[2-(3-hydroxypropoxy)-3,5-dimethoxy-phenylamino]-quinoxalin-2-yl}benzenesulfonamide], the IC50 was 0.001 to 0.1 µM.

Consider `COc1cc(Nc2nc3ccccc3nc2NS(=O)(=O)c2ccc(C#N)cc2)c(OCCOCCO)c(OC)c1` [Compound A80], for which the IC50 lay within 0.001 to 0.1 µM. In the case of `COc1cc(Nc2nc3ccccc3nc2NS(=O)(=O)c2ccc(C(=O)N(C)C)cc2)c(OCCOCCO)c(OC)c1` [Compound A69], the IC50 is 0.1 to 10 µM.

`COCCOCCOc1c(Nc2nc3ccccc3nc2NS(=O)(=O)c2cn(C)cn2)cc(OC)cc1OC` [Compound A47]: the IC50 is 0.001 to 0.1 µM. For the compound `COc1cc(Nc2nc3ccccc3nc2NS(=O)(=O)c2cccc(C(=O)N3CC(F)(F)C3)c2)c(OCCCO)c(OC)c1` [Compound A107], the IC50 was in the range of 0.1 to 10 µM. In turn, `COc1cc(Nc2nc3ccccc3nc2NS(=O)(=O)c2ccn(CC(=O)N(C)C)n2)c(OC)c(OC)c1` [Compound A131] gave an IC50 of 0.001 to 0.1 µM. `COc1cc(Nc2nc3ccccc3nc2NS(=O)(=O)c2ccc(C(=O)N(C)C)cc2)c(OC)c(OC)c1` [Compound A90] showed an IC50 of 0.1 to 10 µM. As to `COc1cc(Nc2nc3ccccc3nc2NS(=O)(=O)c2ccn(C)n2)c(OC)c(OC)c1` [Compound A121], the IC50 lay within 0.001 to 0.1 µM.

As for `COc1cc(Nc2nc3ccccc3nc2NS(=O)(=O)c2ccc(CN3CC(F)(F)C3)cc2)c(OCCCO)c(OC)c1` [Compound A110, 4-(3,3-Difluoroazetidin-1-ylmethyl)-N-{3-[2-(3-hydroxypropoxy)-3,5-dimethoxyphenylamino]-quinoxalin-2-yl}benzenesulfonamide], the IC50 lay in the range of 0.001 to 0.1 µM. As to `COc1cc(Nc2nc3ccccc3nc2NS(=O)(=O)c2cn(C)cn2)c(OCCC(C)O)c(OC)c1` (stereo not shown) [Compound A42], the IC50 fell in the range of 0.001 to 0.1 µM. For the compound `CCc1cc(OC)cc(Nc2nc3ccccc3nc2NS(=O)(=O)c2cn(C)cn2)c1OC` [Compound A17], the IC50 was greater than 10 µM. In turn, `COc1cc(Nc2nc3ccccc3nc2NS(=O)(=O)c2cnn(CC(=O)N(C)C)c2)c(OCCCO)c(OC)c1` [Compound A27] displayed an IC50 of 0.1 to 10 µM. Consider `COc1cc(Nc2nc3ccccc3nc2NS(=O)(=O)c2ccc(C#N)cc2)c(OCCS(=O)(=O)CCO)c(OC)c1` [Compound A76], for which the IC50 fell in the range of 0.001 to 0.1 µM. In turn, `COc1cc2c(c(Nc3nc4ccccc4nc3NS(=O)(=O)c3cn(C)cn3)c1)OC(CO)C2` (stereo not shown) [Compound A5] returned an IC50 of 0.1 to 10 µM. As to `COc1cc(Nc2nc3ccccc3nc2NS(=O)(=O)c2ccc(CN(C)C)cc2)c(OCCCO)c(OC)c1` [Compound A38, 4-dimethylaminomethyl-N-{3-[2-(3-hydroxypropoxy)-3,5-dimethoxyphenylamino]quinoxalin-2-yl}benzenesulfonamide], the IC50 was in the range of 0.001 to 0.1 µM.

`CCN(CC)Cc1nc(S(=O)(=O)Nc2nc3ccccc3nc2Nc2cc(OC)cc(OC)c2OCCC(C)O)cn1C` (stereo not shown) [Compound A123] yielded an IC50 of 0.1 to 10 µM. Compound `COc1cc(Nc2nc3ccccc3nc2NS(=O)(=O)c2ccc(CNC(C)=O)cc2)c(OCCCO)c(OC)c1` [Compound A132, N-(4-{3-[2-(3-hydroxypropoxy)-3,5-dimethoxyphenylamino]quinoxalin-2-ylsulfamoyl}benzyl)acetamide] registered an IC50 of 0.001 to 0.1 µM.

On to `COc1cc(Nc2nc3ccccc3nc2NS(C)(=O)=O)c(OCCC(C)O)c(OC)c1` (stereo not shown) [Compound A99], for which the IC50 lay within 0.001 to 0.1 µM. Regarding `COc1cc(Nc2nc3ccccc3nc2NS(=O)(=O)c2cn(C)c(CN(C)C)n2)c(OCCCCO)c(OC)c1` [Compound A113], the IC50 was in the range of 0.1 to 10 µM. For the compound `CCc1cc(OC)cc(Nc2nc3ccccc3nc2NS(=O)(=O)c2ccc(C(=O)N(C)C)cc2)c1OC` [Compound A18], the IC50 was greater than 10 µM.

Regarding `CCc1c(Nc2nc3ccccc3nc2NS(=O)(=O)c2cn(C)cn2)cc(OC)cc1OC` [Compound A14], the IC50 lay in the range of 0.1 to 10 µM.

`COc1cc(Nc2nc3ccccc3nc2NS(=O)(=O)c2cn(C)cn2)c(OCCCO)c(OC)c1` [Compound A86] yielded an IC50 of 0.001 to 0.1 µM. As to `COc1cc(Nc2nc3ccccc3nc2NS(=O)(=O)c2cccnc2)c(OCCOCCO)c(OC)c1` [Compound A65], the IC50 lay in the range of 0.1 to 10 µM.

Regarding `COc1cc(Nc2nc3ccccc3nc2NS(=O)(=O)C(F)F)c(OCCC(C)O)c(OC)c1` (stereo not shown) [Compound A115], the concentration for half-maximal inhibition (IC50) is 0.001 to 0.1 µM. `COc1cc(Nc2nc3ccccc3nc2NS(=O)(=O)c2cccc(C(=O)N3CCC3)c2)c(OCCCO)c(OC)c1` [Compound A108] had an IC50 of 0.1 to 10 µM.

`COc1cc(Nc2nc3ccccc3nc2NS(=O)(=O)c2cn(C)c(CN(C)C)n2)c(OCCCO)c(OC)c1` [Compound A33]: the IC50 was 0.1 to 10 µM.
